Paper PMC3925040 (British Journal of Pharmacology, 2014)

Tests used:
[1] = molecular target: T1, transient receptor potential melastatin 3 (TRPM3) (Mus musculus, UniProt J9SQF3); experiment: Fura2 Ca2+ imaging in HEK293 cells, inhibition of PS response at […]; type: cell-based
[2] = molecular target: T1, transient receptor potential melastatin 3 (TRPM3); experiment: whole-cell patch clamp inhibition of PS-evoked current in HEK293 cells; type: cell-based; settings: HEK293, read-out: % inhibition at 21 μM

T1 sequence (J9SQF3 1-1709 isoform J9SQF3-12): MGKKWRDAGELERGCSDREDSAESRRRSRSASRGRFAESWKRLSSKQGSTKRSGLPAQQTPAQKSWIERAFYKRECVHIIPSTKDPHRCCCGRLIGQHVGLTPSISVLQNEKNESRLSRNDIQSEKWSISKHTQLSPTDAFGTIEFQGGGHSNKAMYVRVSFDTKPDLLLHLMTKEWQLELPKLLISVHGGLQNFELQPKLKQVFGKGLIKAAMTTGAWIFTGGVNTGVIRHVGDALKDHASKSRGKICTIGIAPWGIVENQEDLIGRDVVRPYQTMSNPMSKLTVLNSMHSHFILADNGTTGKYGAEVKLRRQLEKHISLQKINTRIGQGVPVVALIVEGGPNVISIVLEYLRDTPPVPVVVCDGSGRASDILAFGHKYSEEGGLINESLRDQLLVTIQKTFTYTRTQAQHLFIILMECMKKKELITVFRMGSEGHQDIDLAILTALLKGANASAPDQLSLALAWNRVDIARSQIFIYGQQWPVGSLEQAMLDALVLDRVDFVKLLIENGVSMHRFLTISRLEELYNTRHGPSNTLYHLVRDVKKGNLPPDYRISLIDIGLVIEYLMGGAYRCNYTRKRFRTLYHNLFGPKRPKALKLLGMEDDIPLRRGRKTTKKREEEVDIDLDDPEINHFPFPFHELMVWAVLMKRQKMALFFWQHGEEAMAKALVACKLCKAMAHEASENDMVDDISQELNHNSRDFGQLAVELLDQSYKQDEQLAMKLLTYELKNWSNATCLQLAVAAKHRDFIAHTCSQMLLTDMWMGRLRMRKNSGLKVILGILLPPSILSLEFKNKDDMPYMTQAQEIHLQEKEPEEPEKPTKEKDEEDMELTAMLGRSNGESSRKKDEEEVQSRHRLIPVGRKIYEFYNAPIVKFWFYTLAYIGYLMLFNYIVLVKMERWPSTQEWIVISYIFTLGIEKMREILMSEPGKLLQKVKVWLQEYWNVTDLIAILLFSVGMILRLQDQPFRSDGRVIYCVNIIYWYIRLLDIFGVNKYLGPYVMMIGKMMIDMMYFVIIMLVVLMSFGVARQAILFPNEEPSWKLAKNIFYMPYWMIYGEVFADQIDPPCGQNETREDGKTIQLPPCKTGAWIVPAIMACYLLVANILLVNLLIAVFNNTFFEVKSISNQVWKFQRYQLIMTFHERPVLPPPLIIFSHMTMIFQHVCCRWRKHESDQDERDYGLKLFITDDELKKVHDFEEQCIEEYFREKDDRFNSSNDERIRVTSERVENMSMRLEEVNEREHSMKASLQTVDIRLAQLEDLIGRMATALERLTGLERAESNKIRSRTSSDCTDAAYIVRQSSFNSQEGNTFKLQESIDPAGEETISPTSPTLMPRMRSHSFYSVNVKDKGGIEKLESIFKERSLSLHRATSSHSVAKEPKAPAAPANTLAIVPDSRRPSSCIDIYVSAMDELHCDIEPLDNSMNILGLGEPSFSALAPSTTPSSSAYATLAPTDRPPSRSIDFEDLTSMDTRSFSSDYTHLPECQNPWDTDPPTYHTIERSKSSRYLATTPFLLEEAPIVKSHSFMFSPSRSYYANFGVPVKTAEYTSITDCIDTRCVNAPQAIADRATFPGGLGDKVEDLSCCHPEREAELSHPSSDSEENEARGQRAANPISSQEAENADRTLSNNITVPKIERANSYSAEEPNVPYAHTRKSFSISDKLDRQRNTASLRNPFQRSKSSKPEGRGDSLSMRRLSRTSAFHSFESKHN

For `COC(=O)C1=C(C)NC(C)=C(C(=O)OCCN(C)Cc2ccccc2)C1c1cccc([N+](=O)[O-])c1` (centres unmarked) [Nic, nicardipine], the “Fura2 Ca2+ imaging in HEK293 cells, inhibition of PS response at 50 μM” value [1] was “nicardipine also inhibited PS-induced TRPM3 activation”.

With `COCCOC(=O)C1=C(C)NC(C)=C(C(=O)OC(C)C)C1c1cccc([N+](=O)[O-])c1` (centres unmarked) [nimodipine] the inhibition at 21 µM [2] was 70.2%.
